Data reported in ChEMBL document CHEMBL1137967, “Lactams as EP4 prostanoid receptor subtype selective agonists. Part 1: 2-Pyrrolidinones-stereochemical and lower side-chain optimization” (Bioorg Med Chem Lett, 2004).

What was measured:
[1] = target: T1, Prostaglandin E2 receptor EP4 subtype (Homo sapiens, UniProt P35408); experiment: Agonist activity against recombinant prostanoid EP4 receptor stably transfected in CHO cells; assay type: functional, cell-based
[2] = target: T1, Prostaglandin E2 receptor EP4 subtype; experiment: Binding affinity was determined against prostanoid EP4 receptor
[3] = target: T2, Prostaglandin E2 receptor EP3 subtype (Homo sapiens, UniProt P43115); experiment: Binding affinity was determined against prostanoid EP3 receptor
T2 sequence (P43115 whole entry): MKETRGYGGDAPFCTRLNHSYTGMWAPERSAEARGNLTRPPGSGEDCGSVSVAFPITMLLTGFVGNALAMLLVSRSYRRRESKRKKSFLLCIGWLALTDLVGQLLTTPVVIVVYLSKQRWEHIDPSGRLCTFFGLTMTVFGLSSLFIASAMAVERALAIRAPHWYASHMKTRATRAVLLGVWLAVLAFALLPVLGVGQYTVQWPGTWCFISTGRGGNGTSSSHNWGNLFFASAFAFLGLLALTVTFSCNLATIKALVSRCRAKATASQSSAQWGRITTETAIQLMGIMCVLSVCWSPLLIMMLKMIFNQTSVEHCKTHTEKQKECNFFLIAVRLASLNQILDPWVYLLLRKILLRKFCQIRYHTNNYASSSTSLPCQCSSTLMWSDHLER

[4] = target: Prostaglandin E2 receptor EP2 subtype (Homo sapiens, UniProt P43116); experiment: Binding affinity was determined against prostanoid EP2 receptor
Sequence of Prostaglandin E2 receptor EP2 subtype (P43116 whole entry): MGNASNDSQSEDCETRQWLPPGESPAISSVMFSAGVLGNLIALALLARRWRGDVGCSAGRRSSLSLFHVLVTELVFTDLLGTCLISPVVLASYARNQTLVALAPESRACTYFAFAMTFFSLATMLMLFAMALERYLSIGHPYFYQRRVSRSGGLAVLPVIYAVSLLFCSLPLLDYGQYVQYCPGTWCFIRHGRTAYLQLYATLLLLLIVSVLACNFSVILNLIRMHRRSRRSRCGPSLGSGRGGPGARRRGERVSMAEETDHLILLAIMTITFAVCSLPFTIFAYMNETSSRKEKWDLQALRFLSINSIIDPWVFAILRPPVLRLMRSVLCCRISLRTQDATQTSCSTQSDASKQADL

[5] = target: T3, Prostaglandin E2 receptor EP1 subtype (Homo sapiens, UniProt P34995); experiment: Binding affinity was determined against prostanoid EP1 receptor
T3 sequence (P34995 whole entry): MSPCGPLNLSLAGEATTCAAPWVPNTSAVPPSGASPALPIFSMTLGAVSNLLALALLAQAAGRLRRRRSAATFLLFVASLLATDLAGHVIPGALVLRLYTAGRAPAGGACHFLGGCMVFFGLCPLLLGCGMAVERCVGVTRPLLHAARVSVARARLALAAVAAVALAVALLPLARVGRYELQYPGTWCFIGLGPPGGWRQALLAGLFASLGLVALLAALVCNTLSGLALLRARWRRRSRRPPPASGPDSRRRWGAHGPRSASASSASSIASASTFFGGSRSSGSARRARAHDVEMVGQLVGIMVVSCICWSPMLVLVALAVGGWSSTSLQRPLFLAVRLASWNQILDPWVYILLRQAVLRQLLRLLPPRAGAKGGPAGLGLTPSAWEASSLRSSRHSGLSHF

T1 sequence (P35408 whole entry): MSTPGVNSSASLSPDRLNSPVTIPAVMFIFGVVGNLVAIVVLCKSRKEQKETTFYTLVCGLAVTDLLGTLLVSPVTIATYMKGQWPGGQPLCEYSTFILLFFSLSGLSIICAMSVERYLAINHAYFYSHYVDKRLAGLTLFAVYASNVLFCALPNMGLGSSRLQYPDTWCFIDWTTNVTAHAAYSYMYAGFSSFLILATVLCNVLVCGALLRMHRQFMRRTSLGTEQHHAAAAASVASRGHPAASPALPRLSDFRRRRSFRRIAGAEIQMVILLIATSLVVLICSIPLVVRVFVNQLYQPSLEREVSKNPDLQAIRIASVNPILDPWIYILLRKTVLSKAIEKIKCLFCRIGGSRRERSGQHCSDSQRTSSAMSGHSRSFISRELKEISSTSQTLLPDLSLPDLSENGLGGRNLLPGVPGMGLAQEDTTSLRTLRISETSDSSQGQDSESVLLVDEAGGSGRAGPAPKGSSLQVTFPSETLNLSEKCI

SMILES | EC50 [1] [nM] | Ki [2] [nM] | Ki [3] [µM] | Ki [4] [µM] | Ki [5] [µM]
O=C(O)CCCCCCN1C(=O)CC[C@@H]1/C=C/[C@@H](O)CC1CCC1 | 200 | 4.2 | 56 | > 100 | –
O=C(O)CCCCCCN1C(=O)CC[C@@H]1/C=C/C(O)c1ccccc1-c1ccccc1 (some centres not stated) | 42000 | – | – | – | –
O=C(O)CCCCCCN1C(=O)CC[C@@H]1/C=C/C(O)c1cccc(-c2ccccc2Cl)c1 (some centres not stated) | 40 | 6.2 | > 100 | 42 | –
O=C(O)CCCCCCN1C(=O)CC[C@@H]1/C=C/C(O)c1cccc(C(F)(F)F)c1 (some centres not stated) | 500 | 140 | 131 | 68 | –
O=C(O)CCCCCCN1C(=O)CC[C@@H]1/C=C/C(O)c1cccc(-c2ccc(Cl)cc2)c1 (some centres not stated) | 50 | 390 | > 100 | 4.2 | –
O=C(O)CCCCCCN1C(=O)CC[C@@H]1/C=C/C(O)c1cccc(Oc2ccccc2)c1 (some centres not stated) | 85 | 32 | > 100 | – | 50
Cc1cc(O)ccc1-c1cccc(C(O)/C=C/[C@H]2CCC(=O)N2CCCCCCC(=O)O)c1 (some centres not stated) | 13 | 4.9 | > 100 | > 100 | –
O=C(O)CCCCCCN1C(=O)CC[C@@H]1CC[C@@H](O)c1cccc(C(F)(F)F)c1 | 130 | 7.4 | 12 | – | –
O=C(O)CCCCCCN1C(=O)CC[C@@H]1/C=C/C(O)c1ccc(C(F)(F)F)o1 (some centres not stated) | 40 | 10 | 4.9 | 58 | –
O=C(O)CCCCCCN1C(=O)CC[C@@H]1/C=C/C(O)c1cccc(-c2ccccc2)c1 (some centres not stated) | 360 | 360 | > 100 | 32 | –
CCCCC[C@@H](O)/C=C/[C@@H]1CCC(=O)N1CCCCCCC(=O)O | 200000 | – | – | – | –
O=C(O)CCCCCCN1C(=O)CC[C@@H]1/C=C/C(O)Cc1ccccc1 (some centres not stated) | – | – | 100 | 31 | –
O=C(O)CCCCCCN1C(=O)CC[C@@H]1/C=C/[C@@H](O)Cc1cccc(C(F)(F)F)c1 | 12 | 1.6 | 13 | 29 | > 100
O=C(O)CCCCCCN1C(=O)CC[C@@H]1CCC(=O)c1cccc(C(F)(F)F)c1 | > 10000 | – | – | – | –
O=C(O)CCCCCCN1C(=O)CC[C@@H]1/C=C/C(O)C1(c2ccccc2)CC1 (some centres not stated) | 180 | – | 20 | 164 | 28
CCCCC[C@@H](O)/C=C/[C@H]1CCC(=O)N1CCCCCCC(=O)O | 6100 | – | – | – | –
O=C(O)CCCCCCN1C(=O)CC[C@@H]1/C=C/C(O)c1cccc(-c2cccc(Cl)c2)c1 (some centres not stated) | 170 | 420 | > 100 | 85 | –
CCCCC[C@H](O)/C=C/[C@@H]1CCC(=O)N1CCCCCCC(=O)O | > 100000 | – | – | – | –
Cc1cc(Cl)ccc1-c1cccc(C(O)/C=C/[C@H]2CCC(=O)N2CCCCCCC(=O)O)c1 (some centres not stated) | 0.8 | 3.1 | 38 | > 100 | –
CCCCC[C@H](O)/C=C/[C@H]1CCC(=O)N1CCCCCCC(=O)O | 56 | 4.5 | 3 | 4.5 | > 100
O=C(O)CCCCCCN1C(=O)CC[C@@H]1/C=C/C(O)Cc1cccc(C(F)(F)F)c1 (some centres not stated) | 17 | – | 12 | – | > 100
Cc1cc(O)ccc1-c1cccc([C@H](O)CC[C@H]2CCC(=O)N2CCCCCCC(=O)O)c1 | 15 | 8.2 | > 100 | 26 | –
O=C(O)CCCCCCN1C(=O)CC[C@@H]1/C=C/C(O)c1ccccc1 (some centres not stated) | > 10000 | 2300 | – | 41 | –
O=C(O)CCCCCCN1C(=O)CC[C@@H]1CC[C@@H](O)Cc1cccc(C(F)(F)F)c1 | 460 | 16 | 38 | 22 | –
O=C(O)CCCCCCN1C(=O)CC[C@@H]1/C=C/[C@@H](O)CC1CCCCC1 | 120 | 7.5 | 16 | 71 | –
